Tests used:
[1] = biological target: IL-17A(FLAG-Tagged): IL-17RA(His-Tagged) binding (Homo sapiens, UniProt Q16552, K93Q); assay: IL-17A(FLAG-tagged):IL-17RA(His-tagged) binding disruption Eu-HTRF assay, Protocol 2; details: FLAG-IL-17A 1 nM; average if tested more than once
Text: IL-17A(FLAG-Tagged): IL-17RA(His-Tagged) Binding Disruption Eu-HTRF Assay
An antibody directed against the FLAG tag of IL-17A (SEQ ID NO: 1) is labeled with the HTRF donor chromophore (Europium-cryptate). IL-17A is present as a dimer that is “locked into” this quaternary structure due to the formation of loop-spanning […] disulfide bridges. The construct of IL-17RA used in the assay excludes the […] portion of the receptor and is fused to a C-terminal 10×His tag (SEQ ID NO:2). An antibody directed against the His tag of the IL-17RA chimera is labeled with the HTRF acceptor chromophore (“D2”). The fluorescence-resonance energy transfer (FRET) depends on the vicinity of the donor chromophore to the acceptor, and interruption of the binding between the IL-17A and IL-17RA causes the reduction/loss of FRET. Therefore, this assay allows to evaluate the compound effect on the binding IL-17A and IL-17RA by monitoring the fluorescence intensity of donor vs acceptor. The assay was run using either Protocol 1 or Protocol 2 as described below.
Protocol 2. 40 nl of 2-fold serial diluted compound solution for total 22 dilution points is added into each well of a 1536-well, white, low-volume, non-binding plate (Greiner #782904), then 2 μl of FLAG tagged IL-17A at 2×final concentration (1 nM) in solution of PBS+0.01% Triton-X100 is added to each well. The assay plate is briefly centrifuged then incubated for 1 h at rt. A mixed solution is prepared containing 2×5 nM 10HIS×IL-17RA, 2×2.5 nM Eu-anti-FLAG (CISBIO), 2×5 nM D2-anti-HIS (CISBIO) in PBS+0.01% Triton-X100+200 mM Potassium Fluoride (Sigma 60238) and 2 μl of mix is added to each well of the assay plate. The plate is briefly centrifuged then incubated for 2 h at rt. The HTRF intensities at the wavelength of donor (615 nm) and acceptor (665 nm) are measured using BMG Pherastar. The ratio between intensities at two wavelengths is calculated and plotted against the compound concentration and the data is fitted to a one-site competition model to yield IC50 of the compound.

[2] = system: IL-17A-induced G-CSF production in human normal keratinocyte (NHK); assay: NHK assay: IL-17A-induced G-CSF production in normal human keratinocytes; assay type: cell-based; details: Homo sapiens, Keratinocyte, 24 h, IL-17A 5 ng/mL, G-CSF by HTRF, average if tested more than once
Outline: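 Stimulus rhIL-17A 5 ng/mL final, premixed 1 h rt with compound; adult NHK, 5% FBS, 0.2% DMSO. Viability by CellTiter-Glo vs DMSO.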

Chain of UniProt Q16552 (Q16552 with tags, fused parts or gaps K93Q): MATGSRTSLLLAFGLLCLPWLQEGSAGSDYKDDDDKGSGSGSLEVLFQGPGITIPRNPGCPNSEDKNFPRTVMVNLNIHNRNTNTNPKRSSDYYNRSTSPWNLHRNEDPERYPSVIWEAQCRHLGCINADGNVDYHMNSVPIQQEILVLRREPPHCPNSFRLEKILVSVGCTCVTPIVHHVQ

| IC50 [1] [nM] | Structure (SMILES) | IC50 [2] [nM] |
| --- | --- | --- |
| < 50 | [2H]C1([2H])NC(=O)N([C@H](COC2CC2)c2cnn3cc([C@H](CCC(C)(C)C(F)(F)F)NC(=O)c4nonc4OC)nc3c2)C([2H])([2H])C1(F)F [Example 75, N—((S)-1-(7-((S)-2-Cyclopropoxy-1-(5,5-difluoro-2-oxotetrahydropyrimidin-1(2H)-yl-4,4,6,6-d4)ethyl)imidazo[1,2-b]pyridazin-2-yl)-5,5,5-trifluoro-4,4-dimethylpentyl)-4-methoxy-1,2,5-oxadiazole-3-carboxamide] | < 50 |
| < 50 | COC[C@H](c1cnn2cc([C@@H](NC(=O)c3nonc3OC)C3CCC(F)(F)CC3)nc2c1)N1CC(F)(F)CNC1=O [Example 108, N—((S)-(7-((S)-1-(5,5-Difluoro-2-oxotetrahydropyrimidin-1(2H)-yl)-2-methoxyethyl)imidazo[1,2-b]pyridazin-2-yl)(4,4-difluorocyclohexyl)methyl)-4-methoxy-1,2,5-oxadiazole-3-carboxamide] | < 50 |
| < 50 | COC[C@H](c1cnn2cc([C@@H](NC(=O)c3nonc3C3CC3)C(C3CC3)C3CC3)nc2c1)N1CC(F)(F)CNC1=O [Example 103, 4-Cyclopropyl-N—((S)-2,2-dicyclopropyl-1-(7-((S)-1-(5,5-difluoro-2-oxotetrahydropyrimidin-1(2H)-yl)-2-methoxyethyl)imidazo[1,2-b]pyridazin-2-yl)ethyl)-1,2,5-oxadiazole-3-carboxamide] | < 50 |
| < 50 | COC[C@H](c1cnn2cc(C(CC(C)(C)C(C)(F)F)NC(=O)c3nonc3C3CC3)nc2c1)N1CC(F)(F)CNC1=O (single isomer, unassigned) [Example 68, 4-Cyclopropyl-N—((S*)-1-(7-((S)-1-(5,5-difluoro-2-oxotetrahydropyrimidin-1(2H)-yl)-2-methoxyethyl)imidazo[1,2-b]pyridazin-2-yl)-4,4-difluoro-3,3-dimethylpentyl)-1,2,5-oxadiazole-3-carboxamide] | < 50 |
| < 50 | COc1nonc1C(=O)N[C@H](c1cn2ncc([C@@H](COC3CC3)N3CC(F)(F)CNC3=O)cc2n1)C1CCC(F)(F)CC1 [Example 77, N—((S)-(7-((S)-2-Cyclopropoxy-1-(5,5-difluoro-2-oxotetrahydropyrimidin-1(2H)-yl)ethyl)imidazo[1,2-b]pyridazin-2-yl)(4,4-difluorocyclohexyl)methyl)-4-methoxy-1,2,5-oxadiazole-3-carboxamide] | < 50 |
| < 50 | [2H]C1([2H])NC(=O)N([C@H](COC)c2cnn3cc([C@H](CCC(C)(C)C(F)(F)F)NC(=O)c4ncnn4C(C)C)nc3c2)C([2H])([2H])C1(F)F [Example 112, N—((S)-1-(7-((S)-1-(5,5-Difluoro-2-oxotetrahydropyrimidin-1(2H)-yl-4,4,6,6-d4)-2-methoxyethyl)imidazo[1,2-b]pyridazin-2-yl)-5,5,5-trifluoro-4,4-dimethylpentyl)-1-isopropyl-1H-1,2,4-triazole-5-carboxamide] | 50 to 100 |
| 50 to 100 | COc1nonc1C(=O)N[C@@H](CCC(C)(C)C(F)(F)F)c1cn2ncc(CN3C[C@@H]4[C@H](CNC3=O)C4(F)F)cc2n1 (relative stereo) [Example 116, N—((S)-1-(7-(((1S*,7R*)-8,8-Difluoro-4-oxo-3,5-diazabicyclo[5.1.0]octan-3-yl)methyl)imidazo[1,2-b]pyridazin-2-yl)-5,5,5-trifluoro-4,4-dimethylpentyl)-4-methoxy-1,2,5-oxadiazole-3-carboxamide] | > 100 |
| < 50 | COC[C@H](c1cnn2cc([C@@H](NC(=O)c3nonc3C)C(C3CC3)C3CC3)nc2c1)N1CC(F)(F)CNC1=O [Example 102, N—((S)-2,2-Dicyclopropyl-1-(7-((S)-1-(5,5-difluoro-2-oxotetrahydropyrimidin-1(2H)-yl)-2-methoxyethyl)imidazo[1,2-b]pyridazin-2-yl)ethyl)-4-methyl-1,2,5-oxadiazole-3-carboxamide] | < 50 |

More lines, now with the values behind:

| Structure (SMILES) | IC50 [1] [nM] | IC50 [2] [nM] |
| --- | --- | --- |
| COC[C@H](c1cnn2cc([C@@H](NC(=O)c3nonc3C(F)(F)F)C3CCC(F)(F)CC3)nc2c1)N1CC(F)(F)CNC1=O [Example 84, N—((S)-(7-((S)-1-(5,5-Difluoro-2-oxotetrahydropyrimidin-1(2H)-yl)-2-methoxyethyl)imidazo[1,2-b]pyridazin-2-yl)(4,4-difluorocyclohexyl)methyl)-4-(trifluoromethyl)-1,2,5-oxadiazole-3-carboxamide] | < 50 | < 50 |
| [2H]C1([2H])NC(=O)N([C@H](COC)c2cnn3cc([C@H](CCC(C)(C)C(F)(F)F)NC(=O)c4nonc4C(F)(F)F)nc3c2)C([2H])([2H])C1(F)F [Example 83, N—((S)-1-(7-((S)-1-(5,5-Difluoro-2-oxotetrahydropyrimidin-1(2H)-yl-4,4,6,6-d4)-2-methoxyethyl)imidazo[1,2-b]pyridazin-2-yl)-5,5,5-trifluoro-4,4-dimethylpentyl)-4-(trifluoromethyl)-1,2,5-oxadiazole-3-carboxamide] | < 50 | < 50 |
| COC[C@H](c1cnn2cc([C@H](CCC(C)(C)C(C)(F)F)NC(=O)c3nonc3C)nc2c1)N1CC(F)(F)CNC1=O (relative stereo) [Example 133, N—((S*)-1-(7-((S)-1-(5,5-Difluoro-2-oxotetrahydropyrimidin-1(2H)-yl)-2-methoxyethyl)imidazo[1,2-b]pyridazin-2-yl)-5,5-difluoro-4,4-dimethylhexyl)-4-methyl-1,2,5-oxadiazole-3-carboxamide] | < 50 | < 50 |
| COC[C@H](c1cnn2cc(C(CCC3(C(F)(F)F)CC3)NC(=O)c3nonc3C)nc2c1)N1CC(F)(F)CNC1=O (single isomer, unassigned) [Example 125, N—((R*)-1-(7-((S)-1-(5,5-Difluoro-2-oxotetrahydropyrimidin-1(2H)-yl)-2-methoxyethyl)imidazo[1,2-b]pyridazin-2-yl)-3-(1-(trifluoromethyl)cyclopropyl)propyl)-4-methyl-1,2,5-oxadiazole-3-carboxamide] | > 100 | > 100 |
| COC[C@H](c1cnn2cc([C@@H](NC(=O)c3nonc3OC)C3CCC(F)(F)CC3)nc2c1)N1CC(F)(F)C(F)(F)CNC1=O [Example 124, N—((S)-(4,4-Difluorocyclohexyl)(7-((S)-2-methoxy-1-(5,5,6,6-tetrafluoro-2-oxo-1,3-diazepan-1-yl)ethyl)imidazo[1,2-b]pyridazin-2-yl)methyl)-4-methoxy-1,2,5-oxadiazole-3-carboxamide] | < 50 | 50 to 100 |
| Cc1nonc1C(=O)N[C@@H](CCC(C)(C)C(F)(F)F)c1cn2ncc(CN3CC(F)(F)CNC3=O)cc2n1 [Example 115, (S)—N-(1-(7-((5,5-Difluoro-2-oxotetrahydropyrimidin-1(2H)-yl)methyl)imidazo[1,2-b]pyridazin-2-yl)-5,5,5-trifluoro-4,4-dimethylpentyl)-4-methyl-1,2,5-oxadiazole-3-carboxamide] | < 50 | 50 to 100 |
| COC[C@H](c1cnn2cc([C@@H](NC(=O)c3nonc3C)C3CCC(F)(F)CC3)nc2c1)N1CC(F)(F)C(F)(F)CNC1=O [Example 123, N—((S)-(4,4-Difluorocyclohexyl)(7-((S)-2-methoxy-1-(5,5,6,6-tetrafluoro-2-oxo-1,3-diazepan-1-yl)ethyl)imidazo[1,2-b]pyridazin-2-yl)methyl)-4-methyl-1,2,5-oxadiazole-3-carboxamide] | < 50 | 50 to 100 |
| [2H]C1([2H])NC(=O)N([C@H](COC)c2cnn3cc([C@H](CCC(C)(C)C(F)(F)F)NC(=O)c4nonc4OC)nc3c2)C([2H])([2H])C1(F)F [Example 73, N—((S)-1-(7-((S)-1-(5,5-Difluoro-2-oxotetrahydropyrimidin-1(2H)-yl-4,4,6,6-d4)-2-methoxyethyl)imidazo[1,2-b]pyridazin-2-yl)-5,5,5-trifluoro-4,4-dimethylpentyl)-4-methoxy-1,2,5-oxadiazole-3-carboxamide] | < 50 | < 50 |

From US12173007B2, “Imidazopyridazine IL-17 inhibitor compounds” (Janssen Pharmaceutica NV, priority 2021, dated 2024)
